What was measured:
[1] = system: Lymphocytic leukaemia P-388 tumour; experiment: Anti-tumour activity on Lymphocytic leukaemia P-388 tumour; type: in vivo, mice (male; CDF1 strain); details: 5.6 mg/kg, abdominally
Description: Mice (male; CDF1 strain; weight about 22 g; each group consisting of 5 mice) were used as the test animals. Lymphocytic leukaemia P-388 tumour cells (each 1×10^6 cells) were intraperitoneally implanted into each mouse. 24 hours after this, a phosphate buffered physiological solution of sodium chloride (each 0.2 ml) was intraperitioneally injected once into each mouse, a given amount of one substance being contained in each solution so that a different substance is administered to each group of mice. For comparison, a similar phosphate buffered solution of sodium chloride containing mitomycin C was admnistered abdominally to each mouse of a further control group. Table 4 indicates the average survival time in days and T/C (mean value of the survival days of the animals treated with the test compound/mean value of the survival days of the control animals treated with 0.2 ml of the phosphate buffered solution of sodium chloride).

[2] = system: Sarcoma 180 solid tumour; experiment: Therapeutic effect on Sarcoma 180 solid tumour; type: in vivo, mice (male; ddy-strain); details: 5.6 mg/kg, abdominally, single, day 7
Description: Mice (male; ddy-strain; weight about 20 g; each group consisting of 6 mice) were used as test animals. Sarcoma 180 tumour cells (each 5×10^6cells) were subcutaneously implanted into each mouse at the armpit. 24 hours after this, a phosphate buffered physiological solution of sodium chloride (each 0.2 ml) was intraperitoneally administered to each mouse, a given amount of one of the substances DC-45-A, DC-45-B1 and DC-45-B2 being contained in each solution so that a different substance is administered to each group of mice. The said phosphate buffer contained NaCl (0.8 g/dl), KCl (0.02 g/dl), […] (1.15 g/dl) and KH2 PO4 (0.02 g/dl). For comparison purpose, a similar phosphate buffered solution containing mitomycin C (0.2 ml) was abdominally administered to the mice of another group 24 hours after the implantation of the tumour cells. Table 3 indicates the volume of the tumour (mean value in mm^3) and T/C (mean value; the tumour volume of the animal treated with the test compound/the tumour volume of the control animal treated with 0.2 ml of the phosphate buffered solution of sodium chloride, both being determined 7 days after the implantation.

CO[C@@]12[C@H](COC(N)=O)C3=C(C(=O)C(C)=C(N)C3=O)N1C[C@@H]1N[C@@H]12 [Mitomycin C, mitomycin C]
Survival days [1]: 18.0 ± 1.4 days | T/C (survival days) [1]: 1.88 | T/C (tumour volume) [2]: 0.20 | Volume of tumour (mean value) [2]: 282 mm^3

From patent publication US4511560A, “Antibiotic substances DC-45, and their use as medicaments” (Kyowa Hakko Kogyo Kabushiki Kaisha, priority 1979, dated 1985)
